Reference: ChEMBL document CHEMBL1154221, “Farinomalein, a maleimide-bearing compound from the entomopathogenic fungus Paecilomyces farinosus” (2009)

Test system: Phytophthora sojae
Test: Antioomycete activity against Phytophthora sojae P6497 after 48 to 96 hrs by disc diffusion method
Assay type: functional

| MIC [µg] | SMILES |
| --- | --- |
| 5 | CC(C)C1=CC(=O)N(CCC(=O)O)C1=O [FARINOMALEIN] |
| 10 | C[C@@H]1[C@H](O)[C@@H](C)/C=C/C=C/C=C/C=C/C=C/C=C/C=C/[C@H](O[C@@H]2O[C@H](C)[C@@H](O)[C@H](N)[C@@H]2O)C[C@@H]2O[C@](O)(C[C@@H](O)C[C@@H](O)[C@H](O)CC[C@@H](O)C[C@@H](O)CC(=O)O[C@H]1C)C[C@H](O)[C@H]2C(=O)O [AMPHOTERICIN B] |
